The results in this text go back to US20090280483A1, “Methods for Screening Interleukin-6 (IL-6) Signal Transduction Inhibitors” (priority 2005, published 2009).

Assay [1] addresses T1, STAT3 (Mus musculus, UniProt P42227).
T1 construct: Exponentially proliferating M1 cells cultured in RPMI medium; endogenous in cells; host or cells: M1 cells
The assay can be described thus: Western blotting of IL-6-induced tyrosine phosphorylation of STAT3 in M1 cells. The assay is classed as cell-based, murine. The protocol:
Exponentially proliferating M1 cells cultured in RPMI medium supplemented with 10% fetal calf serum (FCS) in culture dish were treated with dimethyl sulfoxide (DMSO) and Compound No. 1, 2, 7, 10, 13, 14 or 16 at a final concentration of 10 μM for 30 minutes. Then, the cells were divided into two equal parts and incubated with or without murine IL-6 at a final concentration of 10 ng/ml for further 1 hour. Then, the M1 cells were suspended at a density of 1×10^7 cells/ml in lysis buffer (0.5% Triton X-100, 50 mM Tris-HCl, (pH7.5), 0.1 mM EDTA, 150 mM NaCl, 200 μM Na3VO4, 50 mM NaF, 1 mM dithiothreitol (DTT), 0.4 mM phenylmethylsulfonyl fluoride (PMSF), 3 μg/mL aprotinin, 2 μg/mL pepstatin A, 1 μg/mL leupeptin) and placed on ice for 30 minutes. The precipitate was removed by centrifuging the cell lysate at 12000 g for 15 minutes.
The samples thus obtained were separated by sodium dodecyl sulfate-polyacrylamide gel electrophoresis (SDS-PAGE). After the electrophoresis, the gel was placed on a PVDF transfer membrane prewetted in methanol for 10-20 seconds and then soaked in transfer buffer (25 mM tris, 192 mM glycine, 10% methanol, 0.1% SDS), and the assembly was sandwiched between two layers each consisting of 5 sheets of filter paper soaked in transfer buffer, whereby proteins were transferred to the transfer membrane using a semi-dry transfer method.
After transfer, the transfer membrane was shaken in blocking buffer (5% BSA, 1% BSA, 0.1% NaN3) for 30 minutes or more. Then, the membrane was washed with PBST (137 mM NaCl, 2.7 mM KCl, 1.5 mM KH2PO4, 8.1 mM Na2HPO4, 0.05% Tween20) three times for 5 minutes by shaking. The membrane was shaken for 60 minutes in an anti-STAT3 polyclonal antibody (C-20, Santa Cruz Biotechnology, Santa Cruz, Calif.) and an anti-phosphorylated STAT3 monoclonal antibody (B-7, Santa Cruz Biotechnology) as primary antibodies both diluted 1:1000 in PBST.
Then, the membrane was washed with PBST three times for 5 minutes by shaking. […]

In assay [2] the target is T2, STAT3 (Homo sapiens, UniProt P40763).
T2 construct: Exponentially proliferating 293T cells cultured in Dulbecco's Modified Eagle's Medium; endogenous in cells; host or cells: 293T cells
The assay can be described thus: Western blotting of IL-6-induced tyrosine phosphorylation of STAT3 in 293T cells. The class given is cell-based. Conditions: 20 μM for 1 hour, then IL-6 10 ng/ml for 16 hours. The protocol: Exponentially proliferating 293T cells cultured in Dulbecco's Modified Eagle's Medium (DMEM) supplemented with 10% fetal calf serum (FCS) in culture dish were incubated with dimethyl sulfoxide (DMSO) and Compounds No. 1, 2, 4, 7, 10, 13, 14 or 16 at a final concentration of 20 μM for 1 hour. Then, the cells were divided into two equal parts and incubated with or without murine IL-6 at a final concentration of 10 ng/ml for further 16 hours. Then, the 293T cells were suspended at a density of 1×10^7 cells/ml in lysis buffer, and placed on ice for 30 minutes. The precipitate was removed by centrifuging the cell lysate at 12000 g for 15 minutes.
The subsequent Western blot step was performed by the method described above.

The target in assay [3] is T2, STAT3. The assay can be described thus: Luciferase assay of IL-6-induced transcriptional activity of STAT3 in 293T cells. The note with it: GFAP promoter firefly luciferase reporter, 20 μM for 1 hour, then human IL-6 10 ng/ml for 16 hours. The assay is classed as cell-based. The protocol: A reporter vector (2 μg) containing the firefly luciferase gene linked downstream of the glial fibrillary acidic protein (GFAP) gene promoter sequence and an internal control vector (0.1 μg) containing the EF1 gene promoter linked to the Renilla luciferase gene were transfected into 293T cells at 1×10^6 cells/well in 12-well plates using Lipofectamine Plus Reagent (Life Technologies, Bethesda, Md.) as instructed by the manufacturer. Twenty-three hours after the transfection, dimethyl sulfoxide (DMSO) and Compounds No. 1, 2, 4, 7, 10, 13, 14 and 16 each at a final concentration of 20 μM were added. One hour after the compounds were added, the cells treated with each compound were divided into two equal parts and stimulated or not with human IL-6 at a final concentration of 10 ng/ml. After 16 hours, cell extracts were prepared from the cells and measured for the specific activity of firefly luciferase to Renilla luciferase using Dual luciferase reporter system (Promega, Madison, Wis.).

In the next assay the test system is ERK1/2. The assay can be described thus: Western blotting of IL-6-induced phosphorylation of ERK1/2 in M1 cells. The assay is classed as cell-based. The note with it: murine IL-6 10 ng/ml, time course 0 to 24 hours.
Another assay concerns KT-3 cells. The assay can be described thus: Negative screening: IL-6-dependent proliferation of KT-3 cells (FACS). The class given is cell-based. Conditions: 10 μM (No. 4 at 2 μM), human IL-6 5 ng/ml, 48 hours. The protocol:
Human tumor cell line KT-3 cells known to have the property of proliferating by IL-6 stimulation were used for negative screening.
KT-3 cells were grown to confluency, and plated on 6-well plates at 1×10^5 cells/well in RPMI medium supplemented with 10% fetal calf serum (FCS) containing human IL-6 (5 ng/ml). After incubation for 3 hours, dimethyl sulfoxide (DMSO) and the 18 compounds (Nos. 1-18) each at a final concentration of 10 μM (except for No. 4 at 2 μM) were added, and incubation was continued for 48 hours.
The human tumor cell line KT-3 cells treated as above were suspended at about 1×10^6 cells/100 μl in RPMI medium supplemented with 10% FCS. Then, FSC/SSC dot plots of these cells were obtained by using FACS Calibur (Becton Dickinson).

Each structure is given as a SMILES string.

T1 sequence (P42227 whole entry): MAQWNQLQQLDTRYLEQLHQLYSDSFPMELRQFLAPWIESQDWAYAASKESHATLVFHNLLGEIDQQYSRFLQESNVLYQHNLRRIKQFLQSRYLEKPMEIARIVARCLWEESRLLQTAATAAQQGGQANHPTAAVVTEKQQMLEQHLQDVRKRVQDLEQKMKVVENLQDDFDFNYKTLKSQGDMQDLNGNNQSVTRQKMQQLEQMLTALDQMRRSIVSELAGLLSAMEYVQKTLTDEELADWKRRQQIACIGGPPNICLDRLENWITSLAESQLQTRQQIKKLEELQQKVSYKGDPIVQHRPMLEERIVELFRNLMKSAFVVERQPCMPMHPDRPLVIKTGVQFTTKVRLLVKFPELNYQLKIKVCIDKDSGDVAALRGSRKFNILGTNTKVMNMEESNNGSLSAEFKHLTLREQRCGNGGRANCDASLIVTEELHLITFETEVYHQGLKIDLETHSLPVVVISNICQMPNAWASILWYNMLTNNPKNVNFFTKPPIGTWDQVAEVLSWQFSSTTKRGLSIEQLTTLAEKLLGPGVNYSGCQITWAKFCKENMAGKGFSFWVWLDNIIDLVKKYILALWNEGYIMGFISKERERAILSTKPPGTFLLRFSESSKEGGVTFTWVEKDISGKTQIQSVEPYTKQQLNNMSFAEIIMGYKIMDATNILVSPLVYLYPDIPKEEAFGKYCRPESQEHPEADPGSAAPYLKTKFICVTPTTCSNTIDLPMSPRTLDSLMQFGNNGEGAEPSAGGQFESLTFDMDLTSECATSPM
T2 sequence (P40763 whole entry): as the sequence (P42227 whole entry) above, with D760E counted along it

Take `Br.O=[N+]([O-])c1ccc(-c2csc(Nc3cc(C(F)(F)F)cc(C(F)(F)F)c3)n2)cc1` [Compound No. 2]: the “inhibition of tyrosine phosphorylation of STAT3 (time course)” value against STAT3 [1] (murine IL-6 10 ng/ml, at 3, 6, and 24 hours after the compound was added) is recorded as “obvious inhibition”. Further, on STAT3 [2], the “inhibition of tyrosine phosphorylation of STAT3” value is “obvious inhibition”. In addition, at STAT3 [3], the “inhibitory effect on the transcriptional activity of STAT3” value is “obvious inhibitory effect”. For the same compound, in the assay with ERK1/2, the “influence on the phosphorylation of ERK1/2 induced by IL-6” value is listed as “no influence”.
Regarding `Br.O=[N+]([O-])c1ccc(-c2csc(Nc3cc(C(F)(F)F)cc(C(F)(F)F)c3)n2)cc1` [Compound No. 1], the “inhibition of IL-6-dependent proliferation of KT-3 cells” value with KT-3 cells is listed as “inhibition of cell proliferation”.
With `Br.O=[N+]([O-])c1ccc(-c2csc(Nc3cc(C(F)(F)F)cc(C(F)(F)F)c3)n2)cc1` [compound 13], the “inhibition of tyrosine phosphorylation of STAT3” value on STAT3 [1] (10 μM for 30 minutes, then murine IL-6 10 ng/ml for 1 hour) is recorded as “obvious inhibition”. Further, the “inhibition of tyrosine phosphorylation of STAT3 (time course)” value against STAT3 [1] (10 μM, IL-6 10 ng/ml, at 3 hours or later after the compounds were added) is “inhibition”.
